The values that follow come from patent US7973055B2, “Crystalline forms of a biphenyl compound” (Theravance, Inc., priority 2006, dated 2011).

In this test the target is T1, hM3 receptor (CHO cells) (Homo sapiens, UniProt P20309).
T1 construct: expressed in transfected cells
Description: Blockade of agonist-mediated calcium release via FLIPR. It is filed as cell-based. The conditions noted are these: CHO cells stably expressing hM3, FLIPR; this or a similar assay. The text has this: Muscarinic receptor subtypes (M1, M3 and M5 receptors), which couple to Gq proteins, activate the phospholipase C (PLC) pathway upon agonist binding to the receptor. As a result, activated PLC hydrolyzes phosphatyl inositol diphosphate (PIP2) to diacylglycerol (DAG) and […] (IP3), which in turn generates calcium release from intracellular stores, i.e., endoplasmic and sarcoplasmic reticulum. The FLIPR (Molecular Devices, Sunnyvale, Calif.) assay capitalizes on this increase in intracellular calcium by using a calcium sensitive dye (Fluo-4AM, Molecular Probes, Eugene, Oreg.) that fluoresces when free calcium binds. This fluorescence event was measured in real time by the FLIPR, which detected the change in fluorescence from a monolayer of cells cloned with human M1 and M3, and chimpanzee M5 receptors. Antagonist potency was determined by the ability of antagonists to inhibit agonist-mediated increases in intracellular calcium.
For FLIPR calcium stimulation assays, CHO cells stably expressing the hM1, hM3 and cM5 receptors were seeded into 96-well FLIPR plates the night before the assay was done. […]
To determine antagonist potency, the dose-dependent stimulation of intracellular Ca^2+ release for oxotremorine was first determined so that antagonist potency can later be measured against oxotremorine stimulation at an EC90 concentration. […]

pKi: −log10 of the molar value.

T1 sequence (P20309 whole entry): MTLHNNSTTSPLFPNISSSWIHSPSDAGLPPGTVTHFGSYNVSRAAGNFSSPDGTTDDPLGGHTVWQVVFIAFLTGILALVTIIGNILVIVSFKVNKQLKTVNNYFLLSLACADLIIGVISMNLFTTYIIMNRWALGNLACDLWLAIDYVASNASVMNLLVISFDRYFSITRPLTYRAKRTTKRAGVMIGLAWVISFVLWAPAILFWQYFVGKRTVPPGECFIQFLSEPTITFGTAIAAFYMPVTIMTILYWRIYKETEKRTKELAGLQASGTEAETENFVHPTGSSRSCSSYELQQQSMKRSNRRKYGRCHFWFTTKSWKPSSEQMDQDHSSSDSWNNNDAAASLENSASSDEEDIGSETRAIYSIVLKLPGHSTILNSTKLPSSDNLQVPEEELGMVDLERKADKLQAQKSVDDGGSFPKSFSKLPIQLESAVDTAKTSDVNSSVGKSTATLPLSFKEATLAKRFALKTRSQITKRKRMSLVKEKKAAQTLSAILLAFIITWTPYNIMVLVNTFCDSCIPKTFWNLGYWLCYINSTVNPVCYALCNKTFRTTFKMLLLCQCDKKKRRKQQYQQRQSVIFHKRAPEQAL

In general, pKi refers to −log10 of the Ki, conventionally taken in molar units. On to `CN(CCN1CCC(OC(=O)Nc2ccccc2-c2ccccc2)CC1)C(=O)c1cccc(C(=O)NCCNCc2ccc(O)cc2)c1` [compound of formula I, biphenyl-2-ylcarbamic acid 1-[2-({3-[2-(4-hydroxybenzylamino)ethylcarbamoyl]benzoyl}methylamino)ethyl]piperidin-4-yl ester], for which the pKi was > 8.00.
